Experimental data reported in the NIST ThermoML archive (doi:10.1021/je301147k).

Assay: mn = molality of the nth substance listed, in mol/kg
Conditions: for electrical conductivity: 100 kPa, Liquid, CyberScan CON1500 Bench Conductivity Meter; for surface tension liquid-gas: 298.2 K, Ring tensiometer

CCCCCCCCCCCC[n+]1ccn(C)c1.[Cl-] [1-dodecyl-3-methylimidazolium chloride] + O
electrical conductivity [S/m]
Conditions | 288.15 K | 293.15 K | 298.15 K | 303.15 K
m1 = 0.001 | 0.00787 | 0.00877 | 0.00992 | 0.0109
m1 = 0.002 | 0.0149 | 0.0166 | 0.0187 | 0.0207
m1 = 0.003 | 0.0219 | 0.0245 | 0.0273 | 0.0304
m1 = 0.004 | 0.0289 | 0.0324 | 0.0367 | 0.0408
m1 = 0.005 | 0.0355 | 0.0401 | 0.0448 | 0.0503
m1 = 0.006 | 0.0433 | 0.0481 | 0.054 | 0.0598
m1 = 0.007 | 0.0491 | 0.0548 | 0.0617 | 0.0687
m1 = 0.008 | 0.0562 | 0.0637 | 0.071 | 0.0787
m1 = 0.009 | 0.0633 | 0.0711 | 0.0795 | 0.0885
m1 = 0.01 | 0.0688 | 0.0778 | 0.0871 | 0.0961
m1 = 0.011 | 0.0764 | 0.0861 | 0.0964 | 0.107
m1 = 0.012 | 0.0832 | 0.0934 | 0.105 | 0.117
m1 = 0.013 | 0.0886 | 0.0991 | 0.112 | 0.124
m1 = 0.014 | 0.095 | 0.106 | 0.118 | 0.132
m1 = 0.015 | 0.1 | 0.112 | 0.126 | 0.14
m1 = 0.016 | 0.105 | 0.117 | 0.131 | 0.145
m1 = 0.017 | 0.107 | 0.12 | 0.136 | 0.15
m1 = 0.018 | 0.111 | 0.125 | 0.14 | 0.155
m1 = 0.019 | 0.115 | 0.129 | 0.144 | 0.16
m1 = 0.02 | 0.117 | 0.132 | 0.146 | 0.165
m1 = 0.021 | 0.12 | 0.135 | 0.15 | 0.169
m1 = 0.022 | 0.122 | 0.137 | 0.154 | 0.173
m1 = 0.023 | 0.125 | 0.141 | 0.158 | 0.178
m1 = 0.024 | 0.128 | 0.144 | 0.162 | 0.181
m1 = 0.025 | 0.131 | 0.147 | 0.166 | 0.185

Conditions | surface tension liquid-gas [mN/m]
m1 = 0.001 | 69.37
m1 = 0.002 | 63.46
m1 = 0.004 | 58.36
m1 = 0.006 | 53.85
m1 = 0.01 | 47.71
m1 = 0.014 | 43.05
m1 = 0.018 | 38.43
m1 = 0.02 | 38.26
m1 = 0.025 | 38.38
m1 = 0.03 | 38.61
m1 = 0.04 | 38.35
m1 = 0.05 | 38.55

CCCCCCCCCCCCn1cc[n+](C)c1.[Br-] [1-dodecyl-3-methylimidazolium bromide] + O
electrical conductivity [S/m]
Conditions | 288.15 K | 293.15 K | 298.15 K | 303.15 K
m1 = 0.001 | 0.00769 | 0.00898 | 0.01 | 0.0112
m1 = 0.002 | 0.0157 | 0.0181 | 0.0198 | 0.0223
m1 = 0.003 | 0.0224 | 0.0261 | 0.029 | 0.032
m1 = 0.004 | 0.0302 | 0.0345 | 0.0386 | 0.0427
m1 = 0.005 | 0.0379 | 0.043 | 0.048 | 0.0519
m1 = 0.006 | 0.0445 | 0.0504 | 0.0563 | 0.0626
m1 = 0.007 | 0.052 | 0.0589 | 0.0655 | 0.0728
m1 = 0.008 | 0.0589 | 0.0664 | 0.0741 | 0.0824
m1 = 0.009 | 0.0657 | 0.074 | 0.0823 | 0.0916
m1 = 0.01 | 0.0717 | 0.0814 | 0.0909 | 0.101
m1 = 0.011 | 0.0758 | 0.0853 | 0.0963 | 0.107
m1 = 0.012 | 0.0776 | 0.0876 | 0.0986 | 0.111
m1 = 0.013 | 0.0799 | 0.0907 | 0.102 | 0.116
m1 = 0.014 | 0.0814 | 0.0922 | 0.104 | 0.118
m1 = 0.015 | 0.0837 | 0.0947 | 0.107 | 0.122
m1 = 0.016 | 0.0854 | 0.0966 | 0.11 | 0.124
m1 = 0.017 | 0.0874 | 0.0986 | 0.112 | 0.127
m1 = 0.018 | 0.0882 | 0.0998 | 0.113 | 0.129
m1 = 0.019 | 0.0893 | 0.101 | 0.115 | 0.131
m1 = 0.02 | 0.0913 | 0.104 | 0.118 | 0.134
m1 = 0.021 | 0.0923 | 0.106 | 0.12 | 0.136
m1 = 0.022 | 0.0935 | 0.107 | 0.122 | 0.139
m1 = 0.023 | 0.0948 | 0.109 | 0.125 | 0.141
m1 = 0.024 | 0.0964 | 0.111 | 0.127 | 0.144
m1 = 0.025 | 0.0985 | 0.112 | 0.129 | 0.146

Conditions | surface tension liquid-gas [mN/m]
m1 = 0.0005 | 68.38
m1 = 0.001 | 62.44
m1 = 0.002 | 58.12
m1 = 0.004 | 51.39
m1 = 0.006 | 43.7
m1 = 0.008 | 40.35
m1 = 0.01 | 36.83
m1 = 0.012 | 36.51
m1 = 0.014 | 36.56
m1 = 0.016 | 36.65
m1 = 0.018 | 36.6
m1 = 0.02 | 36.57
m1 = 0.025 | 36.54
m1 = 0.03 | 36.48
m1 = 0.04 | 36.67
m1 = 0.05 | 36.67

CCCCCCCCCCCCn1cc[n+](C)c1.[I-] [1-dodecyl-3-methylimidazolium iodide] + O
electrical conductivity [S/m]
Conditions | 288.15 K | 293.15 K | 298.15 K | 303.15 K
m1 = 0.0005 | 0.00423 | 0.00497 | 0.00565 | 0.00618
m1 = 0.001 | 0.00828 | 0.00961 | 0.0108 | 0.0118
m1 = 0.002 | 0.0151 | 0.017 | 0.0191 | 0.0211
m1 = 0.003 | 0.0227 | 0.0255 | 0.0287 | 0.0316
m1 = 0.004 | 0.0292 | 0.0332 | 0.0373 | 0.0413
m1 = 0.005 | 0.0334 | 0.0388 | 0.0452 | 0.0506
m1 = 0.006 | 0.036 | 0.0418 | 0.0483 | 0.0552
m1 = 0.007 | 0.0368 | 0.0432 | 0.05 | 0.0579
m1 = 0.008 | 0.0378 | 0.0444 | 0.0516 | 0.0595
m1 = 0.009 | 0.0393 | 0.0459 | 0.0532 | 0.0614
m1 = 0.01 | 0.04 | 0.047 | 0.0543 | 0.0634
m1 = 0.011 | 0.0412 | 0.0485 | 0.0558 | 0.0653
m1 = 0.012 | 0.042 | 0.0502 | 0.0576 | 0.0672
m1 = 0.013 | 0.0425 | 0.0508 | 0.0589 | 0.0687
m1 = 0.014 | 0.0441 | 0.0519 | 0.06 | 0.0699
m1 = 0.015 | 0.0448 | 0.0535 | 0.0616 | 0.0712
m1 = 0.016 | 0.0458 | 0.0542 | 0.0631 | 0.0728
m1 = 0.017 | 0.0471 | 0.0556 | 0.0645 | 0.0739
m1 = 0.018 | 0.0483 | 0.0568 | 0.066 | 0.0758
m1 = 0.019 | 0.0489 | 0.0574 | 0.0667 | 0.0774
m1 = 0.02 | 0.0496 | 0.0582 | 0.0677 | 0.0784

Conditions | surface tension liquid-gas [mN/m]
m1 = 0.0001 | 69.81
m1 = 0.0005 | 65.15
m1 = 0.001 | 56.7
m1 = 0.002 | 46.92
m1 = 0.003 | 38.08
m1 = 0.004 | 33.49
m1 = 0.005 | 31.45
m1 = 0.006 | 31.48
m1 = 0.007 | 31.39
m1 = 0.009 | 31.5
m1 = 0.012 | 31.6
m1 = 0.016 | 31.57
m1 = 0.02 | 31.66
